Assay results taken from patent US6399574B1 (priority 1997, dated 2002).
Where no end group is shown, it is not given here.

Tests used:
[1] = tested on: NMDA receptor (spermine-stimulated [^3H]MK-801 binding)
[2] = mouse, tissue homogenate

Row | Compound | IC50 (μM) [1] | IC50 [1] [nM] | further results
1 | (A^7,10,14)5-17: Con G derivative, A at 7, 10, 14, residues 1-4 deleted (LQANQALIRAKSN; ends and bridges not checked; UniProt P07231 81-97, looked up, variant del1-4 E7A E10A E14A) | inactive |  | 
2 | CC[C@H](C)[C@H](NC(=O)[C@H](CC(N)=O)NC(=O)[C@H](CCC(=O)O)NC(=O)[C@H](CCCNC(=N)N)NC(=O)[C@H](C)NC(=O)[C@H](CC(C)C)NC(=O)[C@H](CCC(=O)O)NC(=O)[C@H](C)NC(=O)[C@H](C)NC(=O)[C@H](CCSC)NC(=O)[C@H](CCCCN)NC(=O)[C@H](C)NC(=O)[C@@H](NC(=O)[C@H](CCC(=O)O)NC(=O)[C@H](CCC(=O)O)NC(=O)[C@H](CCC(=O)O)NC(=O)CN)C(C)C)C(=O)N[C@@H](C)C(=O)N[C@@H](CCCCN)C(=O)NCC(=O)N[C@H]1CSSC[C@@H](C(=O)N[C@@H](Cc2ccc(O)cc2)C(=O)N2CCC[C@H]2C(=O)O)NC(=O)[C@H](CC(N)=O)NC(=O)[C@H](C(C)C)NC(=O)[C@H](CCCCN)NC1=O [ECon R] |  |  | half-life [2]: 2.4 min
3 | (A^7,10)1-12: Con G derivative, A at 7 and 10, residues 13-17 deleted (GEEELQANQALI; ends and bridges not checked; UniProt P07231 81-97, looked up, variant E7A E10A del13-17) |  | 300 | 
4 | A^7,Y^10: Con G derivative, A at position 7 and Y at position 10 (GEEELQANQYLIREKSN; ends and bridges not checked; UniProt P07231 81-97, looked up, variant E7A E10Y) |  | 79 | 
5 | (A^7,10,14)1-15: Con G derivative, A at 7, 10, 14, residues 16-17 deleted (GEEELQANQALIRAK; ends and bridges not checked; UniProt P07231 81-97, looked up, variant E7A E10A E14A del16-17) |  | 34 | 
6 | A^7,10,14: Con G derivative, A at positions 7, 10 and 14 (GEEELQANQALIRAKSN; ends and bridges not checked; UniProt P07231 81-97, looked up, variant E7A E10A E14A) |  | 88 | 
7 | (A^7,10,14)3-17: Con G derivative, A at 7, 10, 14, residues 1-2 deleted (EELQANQALIRAKSN; ends and bridges not checked; UniProt P07231 81-97, looked up, variant del1-2 E7A E10A E14A) | inactive |  | 
8 | (A^7,10,14)2-17: Con G derivative, A at 7, 10, 14, residue 1 deleted (EEELQANQALIRAKSN; ends and bridges not checked; UniProt P07231 81-97, looked up, variant del1-1 E7A E10A E14A) | inactive |  | 
9 | (A^7,10,14)1-16: Con G derivative, A at 7, 10, 14, residue 17 deleted (GEEELQANQALIRAKS; ends and bridges not checked; UniProt P07231 81-97, looked up, variant E7A E10A E14A del17-17) |  | 37 | 
10 | (A^7,10)1-13: Con G derivative, A at 7 and 10, residues 14-17 deleted (GEEELQANQALIR; ends and bridges not checked; UniProt P07231 81-97, looked up, variant E7A E10A del14-17) |  | 253 | 
11 | (A^7,10,14)1-14: Con G derivative, A at 7, 10, 14, residues 15-17 deleted (GEEELQANQALIRA; ends and bridges not checked; UniProt P07231 81-97, looked up, variant E7A E10A E14A del15-17) |  | 232 | 
12 | (A^7,10,14)4-17: Con G derivative, A at 7, 10, 14, residues 1-3 deleted (ELQANQALIRAKSN; ends and bridges not checked; UniProt P07231 81-97, looked up, variant del1-3 E7A E10A E14A) | inactive |  | 
13 | (A^7,10,14)6-17: Con G derivative, A at 7, 10, 14, residues 1-5 deleted (QANQALIRAKSN; ends and bridges not checked; UniProt P07231 81-97, looked up, variant del1-5 E7A E10A E14A) | inactive |  | 
